Test: The opioid antagonist potency against PL-107 mu-opioid receptor from guinea pig ileum(GPI).Ke (nM) = [antagonist]/(IC50 ratio-1)

Question: For `Oc1ccc2c3c1O[C@H]1c4ncc(-c5ccccc5)cc4C[C@@]4(O)[C@@H](C2)N(CC2CC2)CC[C@]314`, which Ki is on record?
Answer: Its Ki is 42 nM.

Reference: BindingDB's records for doi:10.1021/jm990039i (Southern Research Institute, 1999)
